For orientation: EC50 means the concentration giving half of the maximal effect. Low readings indicate an effect from little substance, high ones a need for much substance.

Molecules are shown by their SMILES.

The target in the assay is human PD-L1 (Homo sapiens (Human), UniProt Q9NZQ7). Nature of the assay: T cell activation luciferase reporter cell culture system (T Cell Activation Assay). In kind it is cell-based. Particulars: luciferase reporter assay; PD-L1 aAPC/CHO-K1 cells with PD-1 effector Jurkat T cells. Background: In a reporter assay the amount or activity of a reporter protein is the signal.
Chain of human PD-L1 (Q9NZQ7 19-290): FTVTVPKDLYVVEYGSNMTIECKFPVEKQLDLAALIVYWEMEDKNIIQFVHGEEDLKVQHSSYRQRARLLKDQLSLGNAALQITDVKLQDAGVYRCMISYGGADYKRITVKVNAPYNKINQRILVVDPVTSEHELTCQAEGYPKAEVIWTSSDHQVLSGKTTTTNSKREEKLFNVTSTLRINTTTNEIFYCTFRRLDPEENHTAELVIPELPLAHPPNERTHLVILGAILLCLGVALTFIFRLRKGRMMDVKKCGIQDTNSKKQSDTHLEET
`COc1nc(-c2cccc(-c3ccnc(-c4cnn(C5CNC5)c4)c3Cl)c2Cl)ccc1CNC[C@@H]1CCC(=O)N1` [Cmpd 119, (S)-5-((((6-(3-(2-(1-(azetidin-3-yl)-1H-pyrazol-4-yl)-3-chloropyridin-4-yl)-2-chlorophenyl)-2-methoxypyridin-3-yl)methyl)amino)methyl)pyrrolidin-2-one] showed a concentration giving a half-maximal response (EC50) of 370 nM.
The compound `COc1nc(-c2cccc(-c3ccnc(-c4cnn(CC5CNC5)c4)c3Cl)c2Cl)ccc1CNC[C@@H]1CCC(=O)N1` [Cmpd 120, (S)-5-((((6-(3-(2-(1-(azetidin-3-ylmethyl)-1H-pyrazol-4-yl)-3-chloropyridin-4-yl)-2-chlorophenyl)-2-methoxypyridin-3-yl)methyl)amino)methyl)pyrrolidin-2-one] yielded an EC50 of 972 nM.
`COc1cc(-c2nccc(-c3cccc(-c4ccc(CNC[C@@H]5CCC(=O)N5)c(OC)n4)c3Cl)c2Cl)ccc1CNC1(C(=O)O)CC1` [Cmpd 121, (S)-1-((4-(3-chloro-4-(2-chloro-3-(6-methoxy-5-((((5-oxopyrrolidin-2-yl)methyl)amino)methyl)pyridin-2-yl)phenyl)pyridin-2-yl)-2-methoxybenzyl)amino)cyclopropane-1-carboxylic acid] returned a concentration for a half-maximal effect (EC50) of 131 nM.
The compound `COc1cc(-c2nccc(-c3cccc(-c4ccc(CNC[C@@H]5CCC(=O)N5)c(OC)n4)c3Cl)c2Cl)ccc1CNC[C@@H]1CCO1` [Cmpd 122, (S)-5-((((6-(2-chloro-3-(3-chloro-2-(3-methoxy-4-(((((S)-oxetan-2-yl)methyl)amino)methyl)phenyl)pyridin-4-yl)phenyl)-2-methoxypyridin-3-yl)methyl)amino)methyl)pyrrolidin-2-one] gave an EC50 of 55.7 nM.
Compound `COc1cc(-c2nccc(-c3cccc(-c4cc(Cl)c(CNC[C@@H]5CCC(=O)N5)c(OC)n4)c3Cl)c2Cl)ccc1CNCC(=O)OC(C)C` [Cmpd 123, isopropyl (S)-(4-(3-chloro-4-(2-chloro-3-(4-chloro-6-methoxy-5-((((5-oxopyrrolidin-2-yl)methyl)amino)methyl)pyridin-2-yl)phenyl)pyridin-2-yl)-2-methoxybenzyl)glycinate] registered an EC50 of 129 nM.
Take `COc1cc(-c2nccc(-c3cccc(-c4cc(Cl)c(CNC[C@@H]5CCC(=O)N5)c(OC)n4)c3Cl)c2Cl)cc2c1CN(CCO)CC2` [Cmpd 124, (S)-5-((((4-chloro-6-(2-chloro-3-(3-chloro-2-(2-(2-hydroxyethyl)-8-methoxy-1,2,3,4-tetrahydroisoquinolin-6-yl)pyridin-4-yl)phenyl)-2-methoxypyridin-3-yl)methyl)amino)methyl)pyrrolidin-2-one]: a half-maximal response (EC50) required 36.3 nM.
`COc1cc(-c2nccc(-c3cccc(-c4ccc(CNC[C@@H]5CCC(=O)N5)c(OC)n4)c3Cl)c2Cl)ccc1CN[C@@H](C)C(=O)OC(C)C` [Cmpd 125, isopropyl (4-(3-chloro-4-(2-chloro-3-(6-methoxy-5-(((((S)-5-oxopyrrolidin-2-yl)methyl)amino)methyl)pyridin-2-yl)phenyl)pyridin-2-yl)-2-methoxybenzyl)-L-alaninate]: the concentration giving a half-maximal response (EC50) turned out to be 361 nM.
On to `COc1cc(-c2nccc(-c3cccc(-c4ccc(CNC[C@@H]5CCC(=O)N5)c(OC)n4)c3Cl)c2Cl)ccc1CNC1CCS(=O)(=O)CC1` [Cmpd 126, (S)-5-((((6-(2-chloro-3-(3-chloro-2-(4-(((1,1-dioxidotetrahydro-2H-thiopyran-4-yl)amino)methyl)-3-methoxyphenyl)pyridin-4-yl)phenyl)-2-methoxypyridin-3-yl)methyl)amino)methyl)pyrrolidin-2-one], for which the EC50 turned out to be 36.8 nM.
Then `COc1cc(-c2nccc(-c3cccc(-c4ccc(CNC[C@@H]5CCC(=O)N5)c(OC)n4)c3Cl)c2Cl)ccc1CNC1CCOCC1` [Cmpd 127, (S)-5-((((6-(2-chloro-3-(3-chloro-2-(3-methoxy-4-(((tetrahydro-2H-pyran-4-yl)amino)methyl)phenyl)pyridin-4-yl)phenyl)-2-methoxypyridin-3-yl)methyl)amino)methyl)pyrrolidin-2-one], with 33.5 nM.
`COc1cc(-c2nccc(-c3cccc(-c4ccc(CNC[C@@H]5CCC(=O)N5)c(OC)n4)c3Cl)c2Cl)cc2c1CN(C[C@H]1C[C@H](O)C1)CC2` [Cmpd 133]: the midpoint of the response, the EC50, lay at 21.4 nM.
As to `COc1cc(-c2nccc(-c3cccc(-c4ccc(CNC[C@@H]5CCC(=O)N5)c(OC)n4)c3Cl)c2Cl)cc2c1CN(C[C@H]1C[C@@H](O)C1)CC2` [Cmpd 134], the 50% effective concentration (EC50) turned out to be 23 nM.
Consider `COc1cc(-c2nccc(-c3cccc(-c4ccc(CN(C)C)c(OC)n4)c3Cl)c2Cl)ccc1CN(C)C` [Cmpd 137, 1-(6-(2-chloro-3-(3-chloro-2-(4-((dimethylamino)methyl)-3-methoxyphenyl)pyridin-4-yl)phenyl)-2-methoxypyridin-3-yl)-N,N-dimethylmethanamine], for which a half-maximal effect (EC50) was put at 84.3 nM.
With `COc1cc(-c2nccc(-c3cccc(-c4ccc(CN(C)CCO)c(OC)n4)c3Cl)c2Cl)ccc1CN(C)CCO` [Cmpd 138, 2-(((6-(2-chloro-3-(3-chloro-2-(4-(((2-hydroxyethyl)(methyl)amino)methyl)-3-methoxyphenyl)pyridin-4-yl)phenyl)-2-methoxypyridin-3-yl)methyl)(methyl)amino)ethan-1-ol], a half-maximal response (EC50) required 5160 nM.
For the compound `COc1cc(-c2nccc(-c3cccc(-c4ccc(CNC5CCN(C(C)=O)CC5)c(OC)n4)c3Cl)c2Cl)ccc1CNC1CCN(C(C)=O)CC1` [Cmpd 139, 1-(4-(((6-(3-(2-(4-(((1-acetylpiperidin-4-yl)amino)methyl)-3-methoxyphenyl)-3-chloropyridin-4-yl)-2-chlorophenyl)-2-methoxypyridin-3-yl)methyl)amino)piperidin-1-yl)ethan-1-one], the EC50 came out at 12.9 nM.
Then `COc1cc(-c2nccc(-c3cccc(-c4ccc(CN(C)C5CCN(C(C)=O)CC5)c(OC)n4)c3Cl)c2Cl)ccc1CN(C)C1CCN(C(C)=O)CC1` [Cmpd 140, 1-(4-(((6-(3-(2-(4-(((1-acetylpiperidin-4-yl)(methyl)amino)methyl)-3-methoxyphenyl)-3-chloropyridin-4-yl)-2-chlorophenyl)-2-methoxypyridin-3-yl)methyl)(methyl)amino)piperidin-1-yl)ethan-1-one], with ≥ 10000 nM; and `COC(=O)CN1CCc2cc(-c3nccc(-c4cccc(-c5ccc(CNC[C@@H]6CCC(=O)N6)c(OC)n5)c4Cl)c3Cl)cc(OC)c2C1` [Cmpd 150, methyl (S)-2-(6-(3-chloro-4-(2-chloro-3-(6-methoxy-5-((((5-oxopyrrolidin-2-yl)methyl)amino)methyl)pyridin-2-yl)phenyl)pyridin-2-yl)-8-methoxy-3,4-dihydroisoquinolin-2(1H)-yl)acetate], with 127 nM; and `COc1cc(-c2nccc(-c3cccc(-c4ccc(CNC[C@@H]5CCC(=O)N5)c(OC)n4)c3Cl)c2Cl)cc2c1CN(CC(=O)O)CC2` [Cmpd 151, (S)-2-(6-(3-chloro-4-(2-chloro-3-(6-methoxy-5-((((5-oxopyrrolidin-2-yl)methyl)amino)methyl)pyridin-2-yl)phenyl)pyridin-2-yl)-8-methoxy-3,4-dihydroisoquinolin-2(1H)-yl)acetic acid], with 77.3 nM.
Then `COc1nc(-c2cccc(-c3ccnc(-c4ccc5c(CNC6CCN(C(C)=O)CC6)cn(C)c5c4)c3Cl)c2Cl)ccc1CNC1CCN(C(C)=O)CC1` [Cmpd 277, 1-(4-(((6-(3-(2-(3-(((1-acetylpiperidin-4-yl)amino)methyl)-1-methyl-1H-indol-6-yl)-3-chloropyridin-4-yl)-2-chlorophenyl)-2-methoxypyridin-3-yl)methyl)amino)piperidin-1-yl)ethan-1-one], with 170 nM.
Turning to `COc1cc(-c2nccc(-c3cccc(-c4ccc(CNCCC(=O)O)c(OC)n4)c3Cl)c2Cl)ccc1CNC1CCN(C(C)=O)CC1` [Cmpd 389, 3-(((6-(3-(2-(4-(((1-acetylpiperidin-4-yl)amino)methyl)-3-methoxyphenyl)-3-chloropyridin-4-yl)-2-chlorophenyl)-2-methoxypyridin-3-yl)methyl)amino)propanoic acid], a half-maximal response (EC50) required 35.8 nM.
`COc1cc(-c2nccc(-c3cccc(-c4ccc(CNC5CCN(C(C)=O)CC5)c(OC)n4)c3C#N)c2Cl)ccc1CNC1CCN(C(C)=O)CC1` [Cmpd 615, 2-(2-(4-(((1-acetylpiperidin-4-yl)amino)methyl)-3-methoxyphenyl)-3-chloropyridin-4-yl)-6-(5-(((1-acetylpiperidin-4-yl)amino)methyl)-6-methoxypyridin-2-yl)benzonitrile] showed a concentration giving a half-maximal response (EC50) of 272 nM.
Compound `COc1nc(-c2cccc(-c3ccnc(-c4cc(OC)c5nc(CNC(C)C)nn5c4)c3Cl)c2Cl)ccc1CNC1CCN(C(C)=O)CC1` [Cmpd 644, 1-(4-(((6-(2-chloro-3-(3-chloro-2-(2-((isopropylamino)methyl)-8-methoxy-[1,2,4]triazolo[1,5-a]pyridin-6-yl)pyridin-4-yl)phenyl)-2-methoxypyridin-3-yl)methyl)amino)piperidin-1-yl)ethan-1-one] returned an EC50 of 84.8 nM.
Compound `COc1cc(-c2nccc(-c3ccnc(-c4cc(F)c(CN5CC6(CNC(=O)C6)C5)c(OC)c4)c3Cl)c2Cl)cc(F)c1CN1CC2(CNC(=O)C2)C1` [Compound 323, 2,2′-(((3,3′-Dichloro-[4,4′-bipyridine]-2,2′-diyl)bis(2-fluoro-6-methoxy-4,1-phenylene))bis(methylene))bis(2,6-diazaspiro[3.4]octan-7-one)] came in with an EC50 of 164 nM.
Consider `COc1nc(-c2cncc(-c3cccc(NC(=O)c4cn(C)c(=O)n(C)c4=O)c3Cl)c2Cl)ccc1CNC[C@@H]1CCC(=O)N1` [Compound 712, (S)—N-(2-Chloro-3-(4′-chloro-6-methoxy-5-((((5-oxopyrrolidin-2-yl)methyl)amino)methyl)-[2,3′-bipyridin]-5′-yl)phenyl)-1,3-dimethyl-2,4-dioxo-1,2,3,4-tetrahydropyrimidine-5-carboxamide], for which a half-maximal effect (EC50) was put at 89.1 nM.
Take `COc1nc(-c2ccnc(-c3cccc(NC(=O)c4cn(C)c(=O)n(C)c4=O)c3Cl)c2Cl)ccc1CNC[C@@H]1CCC(=O)N1` [Compound 718, (S)—N-(2-Chloro-3-(3′-chloro-6-methoxy-5-((((5-oxopyrrolidin-2-yl)methyl)amino)methyl)-[2,4′-bipyridin]-2′-yl)phenyl)-1,3-dimethyl-2,4-dioxo-1,2,3,4-tetrahydropyrimidine-5-carboxamide]: the half-maximal effective concentration (EC50) was determined as 81.5 nM.
